According to patent US20230060425A1, “FUSED BICYCLIC HETEROCYCLE DERIVATIVES AS PESTICIDES” (Bayer Aktiengesellschaft, priority 2019, published 2023):
Where two headings read alike, the source gives them in different places.

Assays:
Format in all cases: in vivo
[1] = tested on: Myzus persicae; assay: Myzus persicae oral test; details: 120 h, read-out: efficacy
Protocol: Solvent: 100 parts by weight of acetone
To produce a suitable preparation of active compound, 1 part by weight of active compound is dissolved using the specified parts by weight of solvent and made up with water until the desired concentration is attained.
50 μl of the active compound preparation are transferred into microtitre plates and made up to a final volume of 200 μl with 150 μl of IPL41 insect medium (33%+15% sugar). Subsequently, the plates are sealed with parafilm, which a mixed population of green peach aphids (Myzus persicae) within a second microtitre plate is able to puncture and imbibe the solution through it.
(§1) After 5 days, the efficacy in % is determined. 100% means that all the aphids have been killed; 0% means that no aphids have been killed.

[2] = tested on: Myzus persicae; assay: Myzus persicae spray test; details: foliar, 120 h, application rate 100 g/ha, Chinese cabbage leaf discs, after 5 days, read-out: efficacy
Protocol: Myzus persicae—Spray Test
(§2) Solvent: • 78 parts by weight of acetone • 1.5 parts by weight of dimethylformamide
(§3) Emulsifier: alkylaryl polyglycol ether
(§4) To produce a suitable active compound preparation, 1 part by weight of active compound is dissolved using the stated parts by weight of solvent and made up with water containing an emulsifier concentration of 1000 ppm until the desired concentration is attained. To produce further test concentrations, the formulation is diluted with emulsifier-containing water.
Discs of Chinese cabbage leaves (Brassica pekinensis) infested by all stages of the green peach aphid (Myzus persicae) are sprayed with an active compound formulation of the desired concentration.
as §1

[3] = tested on: Phaedon cochleariae; assay: Phaedon cochleariae spray test; details: foliar, 168 h, read-out: efficacy
Protocol: Phaedon cochleariae—Spray Test
(§5) Solvent: • 78.0 parts by weight of acetone • 1.5 parts by weight of dimethylformamide
as §3, §4
Discs of Chinese cabbage leaves (Brassica pekinensis) are sprayed with an active compound formulation of the desired concentration and, after drying, populated with larvae of the mustard beetle (Phaedon cochleariae).
After 7 days, the efficacy in % is determined. 100% means that all the beetle larvae have been killed; 0% means that no beetle larvae have been killed.

[4] = tested on: Spodoptera frugiperda; assay: Spodoptera frugiperda spray test; details: foliar, 168 h, read-out: efficacy
Protocol: Spodoptera frugiperda—Spray Test
as §5, §3
To produce further test concentrations, the formulation is diluted with emulsifier-containing water.
After 7 days, the efficacy in % is determined. 100% means that all the caterpillars have been killed; 0% means that no caterpillar has been killed.

[5] = tested on: Ctenocephalides felis; assay: Ctenocephalides felis oral test; details: 48 h, application rate 100 ppm, in citrated cattle blood, after 2 days, read-out: efficacy (kill in %)
Protocol: Ctenocephalides felis—Oral Test
Solvent: Dimethyl sulfoxide
To produce a suitable active compound formulation, 10 mg of active compound are mixed with 0.5 ml of dimethyl sulfoxide. Dilution with citrated cattle blood gives the desired concentration.
About 20 unfed adult cat fleas (Ctenocephalides felis) are placed into a chamber which is closed at the top and bottom with gauze. A metal cylinder whose bottom end is closed with parafilm is placed onto the chamber. The cylinder contains the blood/active compound formulation, which can be imbibed by the fleas through the parafilm membrane.
After 2 days, the kill in % is determined. 100% means that all of the fleas have been killed; 0% means that none of the fleas have been killed.

[6] = tested on: Diabrotica balteata; assay: Diabrotica balteata spray test; details: 168 h, application rate 160 μg/cavity (μg/well), wheat grains, after 7 days, read-out: efficacy
Protocol: Diabrotica balteata—Spray Test
as §2, §3, §4
Pre-swollen wheat grains (Triticum aestivum) are incubated in a multiwell plate filled with agar and a little water for one day (5 seed grains per well). The germinated wheat grains are sprayed with an active compound preparation of the desired concentration. Subsequently, each cavity is infected with 10-20 beetle larvae of Diabrotica balteata.
After 7 days, the efficacy in % is determined. 100% means that all wheat plants have grown as in the untreated, uninfected control; 0% means that no wheat plant has grown.

[7] = application rate 4 ppm, after 5 days
[8] = application rate 100 g/ha, Chinese cabbage leaf discs, after 7 days
[9] = application rate 100 g/ha, maize leaf discs, after 7 days

Structure (SMILES)	pest or weed control at 4 ppm [1, 7]	pest or weed control at 100 g/ha [2]	pest or weed control at 100 g/ha [3, 8]	pest or weed control at 100 g/ha [4, 9]	pest or weed control at 100 ppm [5]	pest or weed control at 160 µg/well [6]	pest or weed control at 4 ppm [1]	pest or weed control at 100 g/ha ([3]; in Brassica rapa)	pest or weed control at 100 g/ha ([4]; in Zea mays)
CCS(=O)(=O)c1c(-c2nc3cc(C(F)(F)F)cnc3n2C)ncc2cc(C#N)ccc12 [Example I-001]	100%	90%	100%	100%	–	–	–	–	–
CCS(=O)(=O)c1c(-c2nc3cc(C(F)(F)F)cnc3n2C)ncc2cc(SCC(F)(F)F)ccc12 [Example I-002]	100%	90%	100%	–	–	–	–	–	–
CCS(=O)(=O)c1c(-c2nc3cc(C(F)(F)F)nnc3n2C)ncc2cc(C)ccc12 [Example I-003]	100%	90%	–	–	80%	–	–	–	–
CCS(=O)(=O)c1c(-c2nc3cc(C(F)(F)F)cnc3n2C)ncc2cc(C3CC3)ccc12 [Example I-007]	100%	–	100%	67%	–	–	–	–	–
CCS(=O)(=O)c1c(-c2nc3cc(C(F)(F)F)ncc3n2C)ncc2c(C(F)(F)F)cccc12 [Example I-013]	100%	100%	100%	100%	100%	–	–	–	–
CCS(=O)(=O)c1c(-c2nc3cc(C(F)(F)C(F)(F)F)cnc3n2C)ncc2c(C(F)(F)F)cccc12 [Example I-014]	90%	100%	100%	100%	–	–	–	–	–
CCS(=O)(=O)c1c(-c2nc3cc(S(=O)(=O)C(F)(F)F)cnc3n2C)ncc2cc(Br)ccc12 [Example I-016]	100%	–	–	100%	–	100%	–	–	–
CCS(=O)(=O)c1c(-c2nc3cc(C(F)(F)F)ncc3n2C)ncc2c(Br)cccc12 [Example I-018]	100%	100%	–	–	–	100%	–	–	–
CCS(=O)(=O)c1c(-c2nc3cc(C(F)(F)C(F)(F)F)ncc3n2C)ncc2c(Br)cccc12 [Example I-019]	100%	–	–	100%	–	100%	–	–	–
CCS(=O)(=O)c1c(-c2nc3cc(C(F)(F)F)cnc3n2C)ncc2ccc(C(F)(F)F)cc12 [Example I-021]	100%	–	100%	100%	–	–	–	–	–
CCS(=O)(=O)c1c(-c2nc3cc(C(F)(F)F)cnc3n2C)ncc2cc(NC(=O)OC)ccc12 [Example I-022]	–	–	–	–	–	–	100%	100%	100%
CCS(=O)(=O)c1c(-c2nc3cc(OC(F)(F)F)cnc3n2C)ncc2c(C(F)(F)F)cccc12 [Example I-024]	100%	90%	100%	100%	80%	–	–	–	–
CCS(=O)(=O)c1c(-c2nc3cc(C(F)(F)F)nnc3n2C)ncc2cc(Br)ccc12 [Example I-028]	100%	90%	–	100%	–	80%	–	–	–
CCS(=O)(=O)c1c(-c2nc3cc(S(=O)(=O)C(F)(F)F)cnc3n2C)ncc2c(Br)cccc12 [Example I-029]	100%	90%	–	100%	–	100%	–	–	–
CCS(=O)(=O)c1c(-c2nc3cc(C(F)(F)C(F)(F)F)cnc3n2C)ncc2c(C#N)cccc12 [Example I-030]	100%	–	–	100%	–	100%	–	–	–
